Consider 25 compounds from US10858355B2, “Inhibitors of phosphatidylinositol 3-kinase gamma” (AstraZeneca AB, priority 2016, dated 2020).

For the first assay, the target named is recombinant human PI3Kγ (aa144-1102)-6His (Homo sapiens (Human), UniProt P48736). Description: Test A: Enzymatic Activity Assay for Rec Human PI3Kγ (ADP-Glo). In kind it is biochemical. Particulars: 20 μM ATP, 80 μM DiC8-PIP2, 1.2 nM PI3Kγ, 15 min pre-incubation, 60 min reaction. As for the experimental part: Pharmacological Activity Test A: Enzymatic Activity Assay for Rec Human PI3Kγ
recombinant human PI3Kγ (aa144-1102)-6His, sequence (P48736 144-1102): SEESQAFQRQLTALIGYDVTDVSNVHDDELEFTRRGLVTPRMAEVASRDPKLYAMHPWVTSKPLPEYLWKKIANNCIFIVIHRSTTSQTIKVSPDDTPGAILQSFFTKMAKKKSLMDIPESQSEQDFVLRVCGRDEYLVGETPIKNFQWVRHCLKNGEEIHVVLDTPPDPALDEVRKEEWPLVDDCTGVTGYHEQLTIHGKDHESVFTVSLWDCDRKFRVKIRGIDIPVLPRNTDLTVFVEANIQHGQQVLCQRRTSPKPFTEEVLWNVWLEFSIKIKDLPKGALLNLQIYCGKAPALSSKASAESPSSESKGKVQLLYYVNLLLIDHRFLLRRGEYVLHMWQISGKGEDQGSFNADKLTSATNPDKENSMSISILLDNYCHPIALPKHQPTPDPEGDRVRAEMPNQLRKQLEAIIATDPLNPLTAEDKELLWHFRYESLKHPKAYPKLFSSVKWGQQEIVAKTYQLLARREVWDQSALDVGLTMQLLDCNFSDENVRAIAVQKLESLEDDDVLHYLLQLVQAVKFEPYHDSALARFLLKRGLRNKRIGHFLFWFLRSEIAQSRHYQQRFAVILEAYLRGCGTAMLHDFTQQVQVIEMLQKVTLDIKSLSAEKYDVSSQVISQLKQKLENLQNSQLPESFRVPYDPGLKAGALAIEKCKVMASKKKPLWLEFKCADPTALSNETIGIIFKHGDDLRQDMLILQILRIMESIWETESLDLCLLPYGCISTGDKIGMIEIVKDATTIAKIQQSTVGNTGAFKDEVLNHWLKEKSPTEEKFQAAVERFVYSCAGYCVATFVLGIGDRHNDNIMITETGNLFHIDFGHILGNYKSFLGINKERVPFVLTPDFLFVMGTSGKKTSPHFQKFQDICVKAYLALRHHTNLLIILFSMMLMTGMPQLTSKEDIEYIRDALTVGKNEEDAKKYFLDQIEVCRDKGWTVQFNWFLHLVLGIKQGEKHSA
The activity of recombinant human PI3Kγ (aa144-1102)-6His was determined by measuring the ADP level after phosphorylation of DiC8-PIP2 using a commercially available ADP-Glo™ kit from Promega. The assay was carried out in white low volume 384 well plates in a final volume of 14 μl at rt. The assay conditions contained the following: 50 mM Tris buffer pH 7.4, 2.1 mM DTT, 3 mM MgCl2, 0.05% CHAPS, 20 μM ATP, 80 μM DiC8-PIP2 and 1.2 nM PI3Kγ. […] Routinely, inhibitors were pre-incubated with 3 μl of PI3Kγ for 15 min prior to the addition of […] substrate mixture for a further 60 min enzyme reaction. The phosphorylation was stopped with the addition of 3 μl ADP-Glo™ reagent (stop solution) followed by a 40 min incubation. Prior to detection 6 μl of ADP-Glo™ Kinase Detection Reagent was added and the plates were read in a micro plate reader using a Luminescence filter.
In general terms: ADP-Glo turns the ADP formed in a reaction into a luminescent signal.
Consider `CNS(=O)(=O)c1cc(-c2sc(NC(C)=O)nc2C)cc2c1C(=O)N([C@@H](C)C(C)(C)C)C2` [Example 33, N-(5-{2-[(2S)-3,3-Dimethylbutan-2-yl]-7-(methylsulfamoyl)-1-oxo-2,3-dihydro-1H-isoindol-5-yl}-4-methyl-1,3-thiazol-2-yl)acetamide], for which the “PI3Kγ activity, pIC50” value was determined as 8.8.
Still for that read-out and setting: to `CC(=O)Nc1nc(C)c(-c2cc3c(c(S(=O)(=O)NC4CC4)c2)C(=O)N([C@@H](C)C2CC2)C3)s1` [Example 14, N-(5-{2-[(1S)-1-Cyclopropylethyl]-7-(cyclopropylsulfamoyl)-1-oxo-2,3-dihydro-1H-isoindol-5-yl}-4-methyl-1,3-thiazol-2-yl)acetamide] belongs 9.0.
Regarding `CC(=O)Nc1nc(C)c(-c2cc3c(c(S(=O)(=O)NC4CC(F)(F)C4)c2)C(=O)N([C@@H](C)C2CC2)C3)s1` [Example 17, N-(5-{2-[(1S)-1-Cyclopropylethyl]-7-[(3,3-difluorocyclobutyl)sulfamoyl]-1-oxo-2,3-dihydro-1H-isoindol-5-yl}-4-methyl-1,3-thiazol-2-yl)acetamide], the “PI3Kγ activity, pIC50” value amounted to 8.9.
As to `CCNS(=O)(=O)c1cc(-c2sc(NC(C)=O)nc2C)cc2c1C(=O)N([C@@H](C)C1CC1)C2` [Example 15, N-(5-{2-[(1S)-1-Cyclopropylethyl]-7-(ethylsulfamoyl)-1-oxo-2,3-dihydro-1H-isoindol-5-yl}-4-methyl-1,3-thiazol-2-yl)acetamide], the “PI3Kγ activity, pIC50” value worked out at 9.4.
On the same count and under the same terms, the value for `CC(=O)Nc1nc(C)c(-c2cc3c(c(NS(=O)(=O)CC4CC4)c2)C(=O)N([C@@H](C)C2CC2)C3)s1` [Example 28, N-[5-(2-[(1S)-1-Cyclopropylethyl]-7-{[(cyclopropylmethyl)sulfonyl]amino}-1-oxo-2,3-dihydro-1H-isoindol-5-yl)-4-methyl-1,3-thiazol-2-yl]acetamide] was 9.1; that for `CC(=O)Nc1ncc(-c2cc3c(c(S(C)(=O)=O)c2)C(=O)N([C@@H](C)C2CC2)C3)s1` [Example 2, N-(5-{2-[(1S)-1-Cyclopropylethyl]-7-(methylsulfonyl)-1-oxo-2,3-dihydro-1H-isoindol-5-yl}-1,3-thiazol-2-yl)acetamide] was 9.0.
On the same count and under the same terms, to `CC(=O)Nc1nc(C)c(-c2cc3c(c(S(N)(=O)=O)c2)C(=O)N(C(C)C)C3)s1` [Example 21, N-{4-Methyl-5-[1-oxo-2-(propan-2-yl)-7-sulfamoyl-2,3-dihydro-1H-isoindol-5-yl]-1,3-thiazol-2-yl}acetamide] belongs 8.9.
As for `CC(=O)Nc1nc(C)c(-c2cc3c(c(NS(=O)(=O)c4cn(C)nc4C)c2)C(=O)N([C@@H](C)C2CC2)C3)s1` [Example 29, N-[5-(2-[(1S)-1-Cyclopropylethyl]-7-{[(1,3-dimethyl-1H-pyrazol-4-yl)sulfonyl]amino}-1-oxo-2,3-dihydro-1H-isoindol-5-yl)-4-methyl-1,3-thiazol-2-yl]acetamide], the “PI3Kγ activity, pIC50” value worked out at 8.9.
With `CC(=O)Nc1nc(C)c(-c2cc3c(c(S(=O)(=O)NC4CCC4)c2)C(=O)N([C@@H](C)C2CC2)C3)s1` [Example 10, N-(5-{7-(Cyclobutylsulfamoyl)-2-[(1S)-1-cyclopropylethyl]-1-oxo-2,3-dihydro-1H-isoindol-5-yl}-4-methyl-1,3-thiazol-2-yl)acetamide], the “PI3Kγ activity, pIC50” value stood at 8.9.
Turning to `CNS(=O)(=O)c1cc(-c2sc(NC(C)=O)nc2C)cc2c1C(=O)N(C(C)(C)C)C2` [Example 34, N-{5-[2-tert-Butyl-7-(methylsulfamoyl)-1-oxo-2,3-dihydro-1H-isoindol-5-yl]-4-methyl-1,3-thiazol-2-yl}acetamide], the “PI3Kγ activity, pIC50” value is on record as 8.8.
The same measure, in the same setting: to `CNS(=O)(=O)c1cc(-c2cnc(NC(C)=O)s2)cc2c1C(=O)N([C@@H](C)C1CC1)C2` [Example 8, N-(5-{2-[(1S)-1-Cyclopropylethyl]-7-(methylsulfamoyl)-1-oxo-2,3-dihydro-1H-isoindol-5-yl}-1,3-thiazol-2-yl)acetamide] belongs 9.0; to `CC(=O)Nc1nc(C)c(-c2cc3c(c(S(=O)(=O)NCC4CC4)c2)C(=O)N([C@@H](C)C2CC2)C3)s1` [Example 13, N-(5-{2-[(1S)-1-Cyclopropylethyl]-7-[(cyclopropylmethyl)sulfamoyl]-1-oxo-2,3-dihydro-1H-isoindol-5-yl}-4-methyl-1,3-thiazol-2-yl)acetamide], 9.0; to `CNS(=O)(=O)c1cc(-c2cnc3c(N)nccn23)cc2c1C(=O)N([C@@H](C)C1CC1)C2` [Example 31, 6-(8-Aminoimidazo[1,2-a]pyrazin-3-yl)-2-[(1S)-1-cyclopropylethyl]-N-methyl-3-oxo-2,3-dihydro-1H-isoindole-4-sulfonamide], 8.7.
On to `CC(=O)Nc1nc(C)c(-c2cc3c(c(S(=O)(=O)Nc4cccc(C#N)c4)c2)C(=O)N(C(C)C)C3)s1` [Example 37, N-(5-{7-[(3-Cyanophenyl)sulfamoyl]-1-oxo-2-(propan-2-yl)-2,3-dihydro-1H-isoindol-5-yl}-4-methyl-1,3-thiazol-2-yl)acetamide], for which the “PI3Kγ activity, pIC50” value is reported as 9.0.
With `CC(=O)Nc1nc(C)c(-c2cc3c(c(S(=O)(=O)N(C)C)c2)C(=O)N([C@@H](C)C2CC2)C3)s1` [Example 7, N-(5-{2-[(1S)-1-Cyclopropylethyl]-7-(dimethylsulfamoyl)-1-oxo-2,3-dihydro-1H-isoindol-5-yl}-4-methyl-1,3-thiazol-2-yl)acetamide], the “PI3Kγ activity, pIC50” value is listed as 9.1.
On the same count and under the same terms, the value for `CC(=O)Nc1nc(C)c(-c2cc3c(c(S(=O)(=O)NCC(F)(F)F)c2)C(=O)N([C@@H](C)C2CC2)C3)s1` [Example 20, N-(5-{2-[(1S)-1-Cyclopropylethyl]-1-oxo-7-[(2,2,2-trifluoroethyl)sulfamoyl]-2,3-dihydro-1H-isoindol-5-yl}-4-methyl-1,3-thiazol-2-yl)acetamide] was 9.2; that for `CCCS(=O)(=O)Nc1cc(-c2sc(NC(C)=O)nc2C)cc2c1C(=O)N([C@@H](C)C1CC1)C2` [Example 24, N-(5-{2-[(1S)-1-Cyclopropylethyl]-1-oxo-7-[(propylsulfonyl)amino]-2,3-dihydro-1H-isoindol-5-yl}-4-methyl-1,3-thiazol-2-yl)acetamide] was 9.0.
The same measure, in the same setting: to `CNS(=O)(=O)c1cc(-c2sc(NC(C)=O)nc2C)cc2c1C(=O)N(C(C)(C)C1CC1)C2` [Example 32, N-{5-[2-(2-Cyclopropylpropan-2-yl)-7-(methylsulfamoyl)-1-oxo-2,3-dihydro-1H-isoindol-5-yl]-4-methyl-1,3-thiazol-2-yl}acetamide] belongs 9.0; to `CCS(=O)(=O)Nc1cc(-c2sc(NC(C)=O)nc2C)cc2c1C(=O)N([C@@H](C)C1CC1)C2` [Example 25, N-(5-{2-[(1S)-1-Cyclopropylethyl]-7-[(ethylsulfonyl)amino]-1-oxo-2,3-dihydro-1H-isoindol-5-yl}-4-methyl-1,3-thiazol-2-yl)acetamide], 9.1; to `CNS(=O)(=O)c1cc(-c2sc(NC(C)=O)nc2C)cc2c1C(=O)N([C@@H](C)C(F)(F)F)C2` [Example 35, N-(4-Methyl-5-{7-(methylsulfamoyl)-1-oxo-2-[(2S)-1,1,1-trifluoropropan-2-yl]-2,3-dihydro-1H-isoindol-5-yl}-1,3-thiazol-2-yl)acetamide], 9.0.
Still for that read-out and setting: to `CC(=O)Nc1nc(C)c(-c2cc3c(c(NC(C)=O)c2)C(=O)N([C@@H](C)C2CC2)C3)s1` [Example 5, N-(5-{7-(Acetylamino)-2-[(1S)-1-cyclopropylethyl]-1-oxo-2,3-dihydro-1H-isoindol-5-yl}-4-methyl-1,3-thiazol-2-yl)acetamide] belongs 9.0; to `CNS(=O)(=O)c1cc(-c2sc(NC(C)=O)nc2C)cc2c1C(=O)N(C(C)C)C2` [Example 11, N-{4-Methyl-5-[7-(methylsulfamoyl)-1-oxo-2-(propan-2-yl)-2,3-dihydro-1H-isoindol-5-yl]-1,3-thiazol-2-yl}acetamide], 8.8.
Take `CC(=O)Nc1nc(C)c(-c2cc3c(c(S(=O)(=O)Nc4cccc(C#N)c4)c2)C(=O)N([C@@H](C)C2CC2)C3)s1` [Example 36, N-(5-{7-[(3-Cyanophenyl)sulfamoyl]-2-[(1S)-1-cyclopropylethyl]-1-oxo-2,3-dihydro-1H-isoindol-5-yl}-4-methyl-1,3-thiazol-2-yl)acetamide]: the “PI3Kγ activity, pIC50” value turned out to be 9.3.

The same assay, now with this note: 20 μM ATP, 80 μM DiC8-PIP2, 1.2 nM PI3Kγ, 15 min pre-incubation, 60 min reaction; read-out: PI3Kγ activity, pIC50 (converted).
Regarding `CNS(=O)(=O)c1cc(-c2sc(NC(C)=O)nc2Cl)cc2c1C(=O)N([C@@H](C)C1CC1)C2` [Example 30, N-(4-Chloro-5-{2-[(1S)-1-cyclopropylethyl]-7-(methylsulfamoyl)-1-oxo-2,3-dihydro-1H-isoindol-5-yl}-1,3-thiazol-2-yl)acetamide], the IC50 was 1.26 nM.
On the same count and under the same terms, to `CC(=O)Nc1nc(C)c(-c2cc3c(c(S(=O)(=O)NCC4(CF)CC4)c2)C(=O)N([C@@H](C)C2CC2)C3)s1` [Example 19, N-(5-{2-[(1S)-1-Cyclopropylethyl]-7-({[1-(fluoromethyl)cyclopropyl]methyl}sulfamoyl)-1-oxo-2,3-dihydro-1H-isoindol-5-yl}-4-methyl-1,3-thiazol-2-yl)acetamide] belongs 0.398 nM.
